# From patent US20150306081A1, “Chemotherapy for Drug-Resistant Cancer Cells” (THE UNIVERSITY OF SYDNEY, priority 2012, published 2015)
# Read-outs that look alike come from different tables or passages of the source.
# How the values were obtained:
# Pgp [1] = molecular target: T1, Pgp (Homo sapiens, UniProt P08183); assay: Pgp-ATPase activity assay (Pgp-Glo)
# Procedure: The ATPase activities of Pgp were determined using Pgp-enriched membranes and a luminescent ATP detection kit (Pgp-Glo Assay Kit, Promega, USA) according to the manufacturer's instructions. Briefly, Pgp membranes (0.5 mg/mL) and Mg(II)-ATP (5 mM) were incubated in the absence or presence of sodium orthovanadate (100 μM) for 40 min/37° C. and ATP detected as a luciferase-generated luminescent signal. Basal Pgp-ATPase activities were determined as the difference between the ATP hydrolysis in the presence or absence of sodium orthovanadate. Verapamil-stimulated Pgp-ATPase activity was measured in the presence of the Pgp control substrate, verapamil (200 μM).
# Test substrates (Dp44mT and Bp4eT) of interest were dissolved in dimethyl sulfoxide. The final concentration of DMSO in the assay medium was less than 1%.
# The Pgp Glo™ ATPase assay (Promega, Madison, Wis.) was used to assess if Dp44mT and Bp4eT are substrates of Pgp. The ATPase assay measures the Pgp-mediated ATPase activity of Pgp by quantitating ATP consumption in the presence of the compounds of interest after incubation with purified membrane proteins containing high levels of Pgp. […] The basal ATPase activity of Pgp is compared to the ATPase activity stimulated or inhibited by the compounds of interest.
# [2] = tested on: Pgp expressing 2008/P200A cells; assay: MTT proliferation assay, 2008/P200A cells; type: cell-based; conditions: for sensitivity of 2008/P200A cells compared to 2008 cells: 72 h; for change of cytotoxicity in presence of Pgp inhibitors Val or Ela: 2008/P200A cells, Val 1 μM, Ela 0.1 μM
# Procedure: (§1) The 2008 ovarian carcinoma cell line and the PAC-resistant 2008/P200A cell line (grown in 200 ng/mL of PAC) were kindly provided by Dr. John Allen (Centenary Institute, Sydney, Australia). Cells were grown in Dulbecco's modified Eagle's medium (DMEM; Life Technologies) with 10% (v/v) fetal calf serum (Sigma-Aldrich, St. Louis, Mo.) and supplemented with the following additions from Life Technologies: 1% (v/v) sodium pyruvate, 1% (v/v) non-essential amino acids, 100 U/mL penicillin, 100 μg/mL streptomycin, 2 mM L-glutamine and 0.28 μg/mL fungizone. The cells were then incubated at 37° C. in a humidified atmosphere of 5% CO2 and 95% air.
# (§2) The effect of anti-cancer agents on cellular proliferation was examined using the MTT [3-(4,5-dimethylthiazol-2-yl)-2,5-diphenyl tetrazolium] method. In this assay, 3×10^3 cells/well were seeded in 96-well plates in 100 μL of media. The next day, serially diluted drugs of interest were added. […] The cells were incubated at 37° C. in a humidified atmosphere containing 5% CO2 and 95% air for 72 h. After this incubation, 10 μL of MIT (5 mg/mL) was added to each well and the incubation continued at 37° C. for 2 h. After solubilization of the cells with 100 μL of 10% SDS-50% isobutanol in 10 mM HCl, the plates were read at 570 nm using a scanning multi-well spectrophotometer (Victor™ Multilabel Counter plate reader; Perkin Elmer, Australia). Results were analyzed to calculate the concentration of chelator or complex necessary to reduce the absorbance to 50% (IC50) of the control.
# [3] = tested on: Pgp-expressing KBV1 cells; assay: MTT proliferation assay, KBV1 cells; type: cell-based, Human; conditions: for IC50: Homo sapiens, KB-V1, 72 h incubation; for IC50 / change of cytotoxicity in presence of Pgp inhibitors Val or Ela: KBV1 cells; for change of cytotoxicity in presence of Pgp inhibitors Val or Ela: Val 1 μM, Ela 0.1 μM, 72 h; for increase in resistance of KBV1 cells compared to KB31 cells: ratio of IC50, 72 h
# KBV1 cells [4] = assay: Lysosomal integrity, acridine orange flow cytometry, KBV1 cells; type: cell-based, Human; conditions: 30 min incubation
# Procedure: Lysotracker® red (Life Technologies) and acridine orange (Sigma-Aldrich) are dyes showing high specificity for lysosomes and were used to determine lysosomal membrane permeability (LMP). The Lysotracker® red was visually assessed by fluorescence microscopy utilizing a Zeiss Axio Observer.Z1 Fluorescence Microscope equipped with an AxioCam camera (Zeiss, Oberkochen, Germany) and acridine orange was quantified by flow cytometry (see below).
# Briefly, cells were incubated with Lysotracker® red (50 nM) for 15 min/37° C. or acridine orange (20 nM) for 15 min/37° C., washed on ice 3 times with ice-cold PBS and then incubated with Cu[Dp44mT] (25 μM) for 30 min/37° C. or Dp44mT alone (25 μM) for 30 min or 24 h/37° C.
# (§3) The dyes, Rh123 and acridine orange were detected with the FACS Canto flow cytometer (BD Biosciences) and 10,000 events were acquired for every sample. Data analysis was performed using FlowJo software, version 7.5.5 (Tree Star Inc., Ashland, OR).
# [5] = Redox studies: oxidation of H2DCF, cell-free
# Procedure: These studies were conducted in an acetate buffer (150 mM; pH 5) containing cysteine (100 μM) to mimic lysosomal conditions. In these experiments, hydrogen peroxide (100 μM) was added to initiate ROS generation.
# KBV1 cells [6] = assay: MTT cytotoxicity after transient knockdown of Pgp (MDR1 siRNA) in KBV1 cells; type: cell-based, Human; conditions: Pgp siRNA vs. Scr siRNA, 72 h
# Procedure: as §2
# For all siRNA treatments against MDR1 (MDR1-siRNA; Cat #: 4123, Life Technologies), a siRNAlipofectamine mixture (50 nM MDR1 siRNA and 1/400 lipofectamine 2000) was added to the cells (at 30% confluency) and incubated for 72 h/37° C. prior to further experimentation. The effectiveness of Pgp knockdown was confirmed using western blot and also assessing DOX cytotoxicity via the MTT assay. As a control, scrambled siRNA (Scr siRNA; Life Technologies) was used at the same concentration as MDR1 siRNA.
# [7] = tested on: non-Pgp expressing 2008 cells; assay: MTT proliferation assay, 2008 cells; type: cell-based; conditions: for change of cytotoxicity in presence of Pgp inhibitors Val or Ela: 2008 cells, Val 1 μM, Ela 0.1 μM; for sensitivity of 2008 cells: compared to 2008/P200A cells
# Procedure: as §1, §2
# [8] = tested on: non-Pgp expressing KB31 cells; assay: Uptake of radio-labeled drug, KB31 cells; type: cell-based, Human; conditions: Val 1 μM or Ela 0.1 μM pre-incubation, versus control
# Procedure: (§4) For the uptake assay, each 35 mm culture dish containing 5×10^5 cells was incubated with ^14C-doxorubicin, ^3H-vinblastine or ^14C-Dp44mT (all at 1 μCi) for 30 min/37° C. Cells were then washed on ice three times with ice-cold PBS and collected for analysis. Drug uptake was calculated as the number of drug molecules/cell. […] For studies using lysosomotropic agents, cells were pre-incubated with NH4Cl (5 mM), CLQ (100 μM) or MA (100 μM) for 30 min/37° C. prior to ^14C-Dp44mT uptake. […] For efflux assays, the same labeling procedure was conducted as in the uptake assay. […] After this procedure, the overlying media was removed using a Pasteur pipette and then placed in a counting vial. The cells were removed from the plate in 1 mL of PBS and then dispensed into a separate counting vial. The radiolabeled-drug efflux was calculated as a percentage of the total drug uptake by the cells found at zero time.
# [9] = tested on: Pgp-expressing KBV1 cells; assay: Uptake of radio-labeled drug, KBV1 cells; type: cell-based, Human; conditions: for effect of Pgp inhibitors Val and Ela on uptake: KBV1 cells, Val 1 μM or Ela 0.1 μM pre-incubation, versus control
# Procedure: as §4, with “Cells” for “For the uptake assay, each 35 mm culture dish containing 5×10^5 cells was incubated with ^14C-doxorubicin, ^3H-vinblastine or ^14C-Dp44mT (all at 1 μCi) for 30 min/37° C. Cells”, “vial.” for “vial. The radiolabeled-drug efflux was calculated as a percentage of the total drug uptake by the cells found at zero time.”
# [10] = tested on: non-Pgp expressing KB31 cells; assay: MTT proliferation assay, KB31 cells; type: cell-based, Human; conditions: for IC50: Homo sapiens, KB 3-1, 72 h incubation; for change of cytotoxicity in presence of Pgp inhibitors Val or Ela: Val 1 μM, Ela 0.1 μM, 72 h
# [11] = tested on: non-Pgp expressing KB31 cells; assay: Rhodamine 123 accumulation assay, KB31 cells; type: cell-based, Human; conditions: increased concentrations
# Procedure: Cells were then harvested and resuspended in ice-cold PBS and kept on ice until flow cytometric analysis (see below).
# as §3
# Pgp-expressing cells = conditions: reported by others; cited from earlier work
# Pgp [12] = molecular target: T1, Pgp; set-up: purchased Promega; conditions: reported by others, biochemical assays; cited from earlier work
# T1 sequence (P08183 whole entry): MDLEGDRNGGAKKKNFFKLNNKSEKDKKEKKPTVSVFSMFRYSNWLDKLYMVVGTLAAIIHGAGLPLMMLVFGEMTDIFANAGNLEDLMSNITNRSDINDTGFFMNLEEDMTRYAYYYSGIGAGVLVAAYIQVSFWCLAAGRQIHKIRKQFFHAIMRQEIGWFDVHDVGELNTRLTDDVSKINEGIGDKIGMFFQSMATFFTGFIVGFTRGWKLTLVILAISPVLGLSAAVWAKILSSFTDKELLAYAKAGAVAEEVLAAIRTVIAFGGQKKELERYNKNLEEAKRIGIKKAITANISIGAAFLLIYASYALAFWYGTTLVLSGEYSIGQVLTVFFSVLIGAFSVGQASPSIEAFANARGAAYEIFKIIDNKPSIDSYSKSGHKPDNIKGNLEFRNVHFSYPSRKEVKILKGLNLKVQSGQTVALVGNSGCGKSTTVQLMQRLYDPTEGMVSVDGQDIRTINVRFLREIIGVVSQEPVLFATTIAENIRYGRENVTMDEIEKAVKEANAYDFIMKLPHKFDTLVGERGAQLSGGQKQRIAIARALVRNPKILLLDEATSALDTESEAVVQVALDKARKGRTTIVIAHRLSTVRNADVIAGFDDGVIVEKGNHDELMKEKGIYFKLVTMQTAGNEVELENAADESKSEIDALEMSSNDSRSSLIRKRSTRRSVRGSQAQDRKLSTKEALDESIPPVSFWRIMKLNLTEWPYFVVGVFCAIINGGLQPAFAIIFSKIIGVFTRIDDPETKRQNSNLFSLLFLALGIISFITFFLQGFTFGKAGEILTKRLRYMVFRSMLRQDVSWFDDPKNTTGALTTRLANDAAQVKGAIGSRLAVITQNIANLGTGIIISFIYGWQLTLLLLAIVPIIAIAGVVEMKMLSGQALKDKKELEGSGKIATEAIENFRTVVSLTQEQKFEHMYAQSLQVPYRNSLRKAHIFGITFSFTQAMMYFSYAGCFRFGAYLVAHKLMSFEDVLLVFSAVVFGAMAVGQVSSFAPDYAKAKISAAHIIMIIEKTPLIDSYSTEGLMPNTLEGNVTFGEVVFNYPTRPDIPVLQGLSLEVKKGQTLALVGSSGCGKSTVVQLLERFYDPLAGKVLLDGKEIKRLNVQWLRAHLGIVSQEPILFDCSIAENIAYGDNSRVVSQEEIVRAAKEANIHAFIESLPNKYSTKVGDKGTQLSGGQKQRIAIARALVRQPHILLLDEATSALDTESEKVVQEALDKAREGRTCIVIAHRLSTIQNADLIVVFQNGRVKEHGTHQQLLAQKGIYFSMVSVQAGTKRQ
compound,measurement,setting,value
"CCNC(=S)NN=C(c1ccccc1)c1ccccn1 [Bp4eT, 2-benzoylpyridine-4-ethyl-3-thiosemicarbazone]",Pgp-ATPase activity (in words),Pgp [1]; relative to basal activity,significant (p<0.001) stimulation of ATPase activity
same,sensitivity of 2008/P200A cells compared to 2008 cells,[2],significantly (p<0.001) increased sensitivity
same,more cytotoxic in drug-resistant KBV1 cells compared to KB31 cells,[3],6.7 fold
"[Cl][Cu][Cl] [CuCl2, copper(II) chloride]",lysosomal integrity (acridine orange),KBV1 cells [4],did not compromise lysosomal integrity
same,Pgp-ATPase activity (in words),Pgp [1],Neither FeCl3 nor CuCl2 significantly stimulated ATPase activity
same,redox activity (H2DCF oxidation),"[5]; acetate buffer pH 5, cysteine, H2O2, over 12 min",no activity
"COc1cccc2c1C(=O)c1c(O)c3c(c(O)c1C2=O)C[C@@](O)(C(=O)CO)C[C@@H]3O[C@H]1C[C@H](N)[C@H](O)[C@H](C)O1 [DOX, Doxorubicin]",decrease of IC50 by knockdown of Pgp,KBV1 cells [6],15 fold
same,change of cytotoxicity in presence of Pgp inhibitors Val or Ela,[7],did not significantly (p>0.05) affect the cytotoxicity
same,sensitivity of 2008 cells,[7],extremely sensitive
same,change of cytotoxicity in presence of Pgp inhibitors Val or Ela,[2],abrogated the resistance
same,sensitivity of 2008/P200A cells compared to 2008 cells,[2],significantly higher resistance
same,IC50,[3],96.4 ± 10.1 µM
same,change of cytotoxicity in presence of Pgp inhibitors Val or Ela,[3],markedly sensitized
same,increase in resistance of KBV1 cells compared to KB31 cells,[3],220 fold
same,effect of Pgp inhibitors Val and Ela on uptake,[8],did not significantly alter radiolabel uptake
same,effect of Pgp inhibitors Val and Ela on uptake,[9],significantly (p<0.001) increased the uptake
same,cellular accumulation in KBV1 cells relative to KB31 cells,"[9]; control groups, 1 μCi",significantly (p<0.001) less
same,IC50,[10],0.44 ± 0.003 µM
same,change of cytotoxicity in presence of Pgp inhibitors Val or Ela,[10],no significant (p>0.05) change in cytotoxicity
"COc1cc2c(cc1OC)CN(CCc1ccc(NC(=O)c3cccc4c(=O)c5cccc(OC)c5[nH]c34)cc1)CC2 [Ela, Elacridar]",effect on Rh123 accumulation,[11],no significant effect on Rh123 accumulation
[Cl][Fe]([Cl])[Cl] [FeCl3],lysosomal integrity (acridine orange),KBV1 cells [4],did not compromise lysosomal integrity
same,Pgp-ATPase activity (in words),Pgp [1],Neither FeCl3 nor CuCl2 significantly stimulated ATPase activity
COc1ccc(NC(=S)N=Nc2c(O)[nH]c3c(Cl)cc(Cl)cc23)cc1 [NSC73306],cytotoxicity to Pgp-expressing cells compared to parent cells,Pgp-expressing cells,increased cytotoxicity to Pgp-expressing cells
same,direct interaction with Pgp,Pgp [12],no direct interaction
"CC[C@]1(O)C[C@@H]2CN(CCc3c([nH]c4ccccc34)[C@@](C(=O)OC)(c3cc4c(cc3OC)N(C)[C@H]3[C@@](O)(C(=O)OC)[C@H](OC(C)=O)[C@]5(CC)C=CCN6CC[C@]43[C@@H]65)C2)C1 [VBL, Vinblastine]",change of cytotoxicity in presence of Pgp inhibitors Val or Ela,[7],did not significantly (p>0.05) affect the cytotoxicity
same,sensitivity of 2008 cells,[7],extremely sensitive
same,change of cytotoxicity in presence of Pgp inhibitors Val or Ela,[2],abrogated the resistance
same,sensitivity of 2008/P200A cells compared to 2008 cells,[2],significantly higher resistance
same,IC50,[3],29.7 ± 1.77 µM
same,change of cytotoxicity in presence of Pgp inhibitors Val or Ela,[3],markedly sensitized
same,increase in resistance of KBV1 cells compared to KB31 cells,[3],221 fold
same,effect of Pgp inhibitors Val and Ela on uptake,[8],did not significantly alter radiolabel uptake
same,effect of Pgp inhibitors Val and Ela on uptake,[9],significantly (p<0.001) increased the uptake
same,IC50,[10],0.13 ± 0.004 µM
same,change of cytotoxicity in presence of Pgp inhibitors Val or Ela,[10],no significant (p>0.05) change in cytotoxicity
"C/C=C/C[C@@H](C)C(=O)[C@H]1C(=O)N[C@@H](C(C)C)C(=O)N(C)CC(=O)N(C)[C@@H](CC(C)C)C(=O)N[C@@H](C(C)C)C(=O)N(C)[C@@H](CC(C)C)C(=O)N[C@@H](C)C(=O)N[C@H](C)C(=O)N(C)[C@@H](CC(C)C)C(=O)N(C)[C@@H](CC(C)C)C(=O)N(C)[C@@H](C(C)C)C(=O)N1C [Val, Valspodar]",decrease of ATPase activity relative to the basal control,"Pgp [1]; Pgp-enriched membranes, 40 min",5 fold
tetrathiolmolybdate [TM],effect on redox activity / ROS generation of Cu[Dp44mT],"[5]; 5 μM, acetate buffer pH 5",totally prevented
